Like-named read-outs stand apart in the source and are kept apart here.
Tests used:
Format in all cases: cell-based
[1] = test system: T-cell leukaemia line, Jurkat; assay: 5-HT sensitivity of Jurkat line; conditions: not shown
L3055 BL cells = assay: DNA synthesis by [3H]-thymidine incorporation in L3055 cells; conditions: for inhibition at 50 µM: L3055, 5-HT 50 μM; for effect on DNA synthesis (in words): single dose, range of concentrations, [3H]-thymidine incorporation at 24 hr; for influence of pre-treatment on 5-HT-dependent inhibition of DNA synthesis (in words): cells pre-treated with agent before 5-HT
Procedure: (§1) DNA synthesis was determined by measuring ^3H-thymidine ([^3H]Tdr; Amersham, UK) incorporation into cellular DNA. Cells were cultured in 200 μL of supplemented medium at densities and for times indicated below in flat-bottomed, 96-well tissue culture plates (Becton Dickinson, Oxford, U K) then pulsed for the final 4 h with 50 μl of 10 μCi/ml [^3H]Tdr before harvesting on a Skatron cell harvester (Helis Bio Ltd, Newmarket, UK).

L3055 cells [2] = assay: Mitochondrial depolarisation with JC-1 dye; conditions: following exposure to 5-HT; not shown
Procedure: Apoptosis was assessed by staining cells with acridine orange and visualising nuclear morphology exactly as described previously (Gordon J, et al. Cell Death. Diff. (2000); 7:785-794). Viable cells display a homogeneous chromatin-staining pattern, whereas apoptotic cells characteristically show condensed and fragmented chromatin. Mitochondrial depolarisation was assessed using the JC-1 cationic dye. Cells were incubated with 10 μM of JC-1 for 30 min before being visualised on a LSM 510 confocal microscope (Zeiss, Germany). […] Mitochondrial depolarisation is indicated by a decrease in the red/green fluorescence ratio.

L3055 cells [3] = assay: Syto 16 / propidium iodide staining (viable, apoptotic, necrotic); conditions: increasing concentrations, 24 hr
Procedure: (§2) Changes in the viability of cells cultured under conditions indicated below were quantified by assessment of forward and 90° (side) light scatter of cells as previously described (Dive C, et al. Biochimica Biophysica Acta (1992); 1133:275-285) using an EPICS XL-MCL flow cytometer (Beckman Coulter, Miami, Fla., USA). Prior to analysis, cells were harvested into polythene FACS tubes, and fixed at 4° C. in 400 μl of FACS buffer [PBS with 5% NGS and 2% Formaldehyde] (BDH/MERCK). Cells were gated in two populations (viable and dead) according to their forward and side light scatter. Viability was expressed as a percentage of the total number of cells residing in the viable and non-viable gates. Cells were also analysed according to Schuurhuis et al (Schuurhuis G J, et al. Exp. Haematol. (1997); 25:754-759) in order to assess the percentages within treated populations of those that were viable, apoptotic, or necrotic. Syto 16 was added at a concentration of 250 nM in PBS to 500,000 cells and incubated at RT for 30 min, at which time 5 μg/ml propidium iodide (PI) was added. Samples were then analysed immediately by FACS and a 2D plot generated of syto 16 fluorescence versus PI fluorescence: syto 16 is taken up only by viable cells whereas Pi exclusively enters necrotic cells—syto 16^−ve/PI^−ve cells are deemed apoptotic.

[4] = test system: group I BL cell lines Mutu I, Elijah, and BL2; assay: DNA synthesis by [3H]-thymidine incorporation in other group I BL cell lines; conditions: 125 μM 5-HT, 24 hr
Procedure: as §1
(§3) Three other group I BL cell lines were also investigated, namely: Mutu I, Elijah, and BL2.

L3055 cells [5] = assay: OxyDNA assay of oxidative damage to DNA; conditions: 6 hr; 150 μM 5-HT or 30 μM H2O2
Procedure: Oxidative damage to DNA was quantified using the OxyDNA assay (Biotrin, Dublin, Ireland). Following culture of cells under conditions indicated below, they were washed first in 1×PBS then in wash solution followed by addition of 100 μl of blocking solution with a 1 hr incubation at 37° C. On washing twice in working solution, cells were then incubated with 100 μl FITC-conjugate for 1 hr in the dark at RT before being washed twice in washing solution and once in PBS. Finally, cells were resuspended in FACS buffer and analysed on an EPICS XL-MCL flow cytometer.
While the above experiments offer evidence that oxidative stress was not the cause of 5-HT-induced apoptosis in BL cells, further more direct examination of the generation of potential reactive oxygen species (ROS) as a consequence of 5-HT uptake was undertaken. For this the OxyuDNA assay was used, which quantifies 8-oxo-7,8-dihydro-2′-deoxyguanosine (8-oxodGuo) residues that are generated as a result of oxidative damage to DNA (see methods section 1.1.8 above).

[6] = test system: Mutu III, an apoptosis resistant (group III) BL cell line; assay: DNA synthesis by [3H]-thymidine incorporation in Mutu III; conditions: 125 μM 5-HT, 24 hr
Procedure: as §1, §3

L3055 cells [7] = assay: Cell cycle analysis (propidium iodide, flow cytometry); conditions: 24 hr; each at its maximal concentration (5-HT 150 μM, fluoxetine 10 μM, anti-μ chain antibody 10 μg/ml)
Procedure: Cells cultured under conditions indicated below were harvested into 100 μl of 1×PBS followed by 400 μl cell cycle buffer containing Triton X-100 and propidium iodide and left to incubate at 4° C. for 1 hr to allow staining of DNA. The degree of fluorescence emitted by bound PI is directly proportional to the amount of DNA in each cell and was measured by flow cytometry as previously described (MacDonald I, et al. Blood (1996); 87:1147-1154). Results are expressed as percentage of viable cells residing in each phase of the cycle.

L3055 cells [8] = assay: Viability by FACS forward versus side light scatter
Procedure: as §2

L3055 cells [9] = assay: Caspase activity (FAM-VAD-FMK, FACS); conditions: for effect on number of cells showing caspase activity (in words): single dose for 24 hours, fluoxetine 10 μM, paroxetine 10 μM, citalopram 100 μM
Procedure: Caspase activity was detected using the CaspaTag Caspase Activity Kit (Intergen, Oxford, UK). Cells cultured under the conditions indicated below were harvested into 300 μl of culture medium at a cell density of 10^6cells/ml, followed by the addition of […] of a 30×working solution of FAM-VAD-FMK (a carboxy fluorescent tagged caspase inhibitor) (Intergen Co., USA). Cells were then incubated for 1 hr at 37° C. under 5% CO2 while protecting the tubes from light. At the end of the incubation, they were washed twice in 2 ml of 1×washing buffer, followed by addition of 2 μl of PI to distinguish dead cells from live cells, then analysed on an EPICS XL-MCL flow cytometer or by confocal microscopy. For the latter, treated cells were harvested into 300 μl of culture medium containing 10 μl of FAM-VAD-FMK before incubating for 1 hr under the conditions described above. Next, 1.5 μl of Hoechst 33342 stain was added for 5 min, and cells were washed twice in 2 ml of 1×washing buffer following the addition of 1 μl of PI.

[10] = test system: Bcl-2 transfected BL cell line; assay: Viability (FACS light scatter) of Bcl-2 transfected BL cell line
Procedure: Group I Burkitt's lymphoma cell lines L3055 (EBV^neg), BL2 (EBV^neg), Elijah (EBV^pos), and MUTU I (EBV^pos) were maintained in early passage as described previously (Baker M P, Eliopoulos E, Young L S, Armitage R J, Gregory C D, Gordon J. Blood (1998); 92:2830-2843). The late passage group III BL line MUTU III (EBV^pos) was also used with all cells cultured in RPMI 1640 medium supplemented with 10% Serum Supreme (BioWhittaker, Wokingham, UK), 2 mM glutamine, 100 IU/ml penicillin and 100 μg/ml streptomycin. […]
Changes in the viability of cells cultured under conditions indicated below were quantified by assessment of forward and 90° (side) light scatter of cells as previously described (Dive C, et al. Biochimica Biophysica Acta (1992); 1133:275-285) using an EPICS XL-MCL flow cytometer (Beckman Coulter, Miami, Fla., USA). […] Viability was expressed as a percentage of the total number of cells residing in the viable and non-viable gates. Cells were also analysed according to Schuurhuis et al (Schuurhuis G J, et al. Exp. Haematol. (1997); 25:754-759) in order to assess the percentages within treated populations of those that were viable, apoptotic, or necrotic. […]

L3055 cells [11] = assay: Intracellular free Ca2+; conditions: data not shown
Source text: The increase in intracellular free Ca^2+ is known to be an important step in the induction of apoptosis.

NCCc1c[nH]c2ccc(O)cc12 [Example 5-HT, Serotonin]
sensitivity to 5-HT actions (in words) [1]: insensitive | effect on level of DNA synthesis (in words) (L3055 BL cells; 1 μM 5-HT, very early passage, lower cell numbers, data not shown): significant reduction | inhibition at 50 µM (L3055 BL cells; cells plated at 2×10^4 per well): ~35% | inhibition at 50 µM (L3055 BL cells; cells plated at 5×10^3 per well): > 90% | inhibition at 50 µM (L3055 BL cells; cells plated at 10^4 per well): ~70% | IC50 (L3055 BL cells; L3055, read-out: 5-HT required to achieve 50% inhibition of DNA synthesis, plated at 2.5×10^4 per ml (5×10^3 per well)): ~5 µM | IC50 (L3055 BL cells; L3055, read-out: 5-HT required to achieve 50% inhibition of DNA synthesis, plating density 10^5 per ml (2×10^4/well)): > 50 µM | effect on DNA synthesis (in words) (L3055 BL cells): caused a reduction in DNA synthesis in a concentration-dependent manner | mitochondrial membrane potential (in words) (L3055 cells [2]): loss of mitochondrial membrane potential | number of viable cells (syto 16+ve/PI−ve) (in words) (L3055 cells [3]): decreased in a concentration-dependent manner | effect on DNA synthesis (in words) [4]: substantial decrease in DNA synthesis | level of oxidatively damaged DNA (8-oxoguanosine residues) (in words) (L3055 cells [5]): no increase in the level of oxidatively damaged DNA | effect on DNA synthesis (in words) [6]: only marginally decreased DNA synthesis | cell cycle status (in words) (L3055 cells [7]): accumulation of arresting cells in the G0/G1 compartment | cells with light scatter characteristics of dead cells (in words) (L3055 cells [8]; 1 to 150 μM, 24 hr): dramatic concentration-dependent increase in the number of L3055 cells acquiring light scatter characteristics of dead cells | viability at 150 µM (L3055 cells [8]; L3055, 24 h, read-out: % viable cells (24 h)): 21.3 ± 8.65% | % caspase activation (6 h) (L3055 cells [9]; 5-HT 150 μM, fluoxetine 5 μM, paroxetine 2 μM, citalopram 10 μM, means ± S.E.M. of 3, control 27.3 ± 1.20): 58.3 ± 2.03% | percentage of cells showing caspase activity (L3055 cells [9]; 6 hr 5-HT treatment, background level 29%): 59%

OO [Example H2O2, H2O2]
level of oxidatively damaged DNA (8-oxoguanosine residues) (in words) (L3055 cells [5]): large increase in the level of 8-oxoguanosine residues generated

CCN(CC)CCOC(=O)c1cc(Cl)c(N)cc1OC [SDZ205-557]
influence of pre-treatment on 5-HT-dependent inhibition of DNA synthesis (in words) (L3055 BL cells): failed to influence the ability of 5-HT to inhibit DNA synthesis

C#CCN(C)CCCOc1ccc(Cl)cc1Cl [clorgyline]
influence of pre-treatment on 5-HT-dependent inhibition of DNA synthesis (in words) (L3055 BL cells): the same outcome was observed

C#CCN(C)[C@H](C)Cc1ccccc1 [deprenyl]
influence of pre-treatment on 5-HT-dependent inhibition of DNA synthesis (in words) (L3055 BL cells): the same outcome was observed

CN(C)CCCN1c2ccccc2CCc2ccccc21 [imipramine]
effect on DNA synthesis (in words) (L3055 BL cells): dose dependant effect | cell killing in Bcl-2 transfected versus native BL cell line (in words) ([10]; 24 hrs): greatly reduced | survival (live cells) ([10]; Bcl-2 transfected BL cell line (panel II, FIG. 26)): 91% | survival (live cells) (L3055 cells [8]; native cell line (panel I, FIG. 26)): 30% | effect on number of cells showing caspase activity (in words) (L3055 cells [9]): significant effect on the number of cells exhibiting caspase activity

C#CCN(C)Cc1ccccc1 [pargyline]
effect of agent by itself on DNA synthesis (in words) (L3055 BL cells; 100 μM pargyline, no 5-HT): no deleterious effect by itself | influence of pre-treatment on 5-HT-dependent inhibition of DNA synthesis (in words) (L3055 BL cells): failed to influence 5-HT-induced cessation of DNA synthesis

Fc1ccc([C@@H]2CCNC[C@H]2COc2ccc3c(c2)OCO3)cc1 [paroxetine]
influence of pre-treatment on 5-HT-dependent inhibition of DNA synthesis (in words) (L3055 BL cells): substantially reversed | effect on DNA synthesis (in words) (L3055 BL cells): dose dependent inhibitory effect | basal Ca2+ (in words) (L3055 cells [11]): increase in basal Ca^2+ | effect on number of cells showing caspase activity (in words) (L3055 cells [9]): significant effect on the numbers of cells showing caspase activity

Source: patent US20050182002A1, “Agents which interact with a serotonin transporter for the treatment of cancer” (priority 2002, published 2005)
